Experimental data: a compilation of properties of binary mixtures (doi:10.1021/acs.jced.8b00334)

Assay: xn = mol fraction of the nth substance listed
Settings: 101.3 kPa

CCC[N+](C)(C)C.O=S(=O)([N-]S(=O)(=O)C(F)(F)F)C(F)(F)F + CCC[N+]1(C)CCCCC1.O=S(=O)([N-]S(=O)(=O)C(F)(F)F)C(F)(F)F
viscosity [mPa·s]
Settings | x1 = 0.2 | x1 = 0.4 | x1 = 0.6 | x1 = 0.8 | x1 = 1
283.15 K | 340 | 292 | – | – | 179
288.15 K | 240 | 209 | 180 | 149 | 133
293.15 K | 175 | 154 | – | – | 102
298.15 K | 131 | 117 | 103 | 88 | 79
303.15 K | 101 | 90 | 80 | 70 | 63
308.15 K | 78 | – | – | 56 | 51
313.15 K | 62 | 57 | 51 | – | 42
318.15 K | 51 | – | – | 38 | 35
323.15 K | 41.5 | 38.4 | 35.2 | 31.8 | 29.5
328.15 K | 34.6 | 32.1 | 29.6 | 27 | 25.2
333.15 K | 29.1 | 27.2 | 25.3 | 23.2 | 21.7
338.15 K | 24.8 | 23.3 | 21.7 | 20 | 18.8
343.15 K | 21.4 | – | 18.9 | – | 16.5
348.15 K | 18.6 | 17.6 | 16.5 | – | –
353.15 K | 16.3 | 15.4 | 14.6 | 13.6 | 12.9

CCC[N+]1(C)CCCC1.O=S(=O)([N-]S(=O)(=O)C(F)(F)F)C(F)(F)F + CCC[N+](C)(C)C.O=S(=O)([N-]S(=O)(=O)C(F)(F)F)C(F)(F)F
x2 = 0
Settings | viscosity [mPa·s]
283.15 K | 126
288.15 K | 97
293.15 K | 76
303.15 K | 50
308.15 K | 41.1
313.15 K | 34.4
318.15 K | 29.2
323.15 K | 25
328.15 K | 21.6
333.15 K | 18.8
338.15 K | 16.6
343.15 K | 14.7
348.15 K | 13.1
353.15 K | 11.7

CCC[N+]1(C)CCCCC1.O=S(=O)([N-]S(=O)(=O)C(F)(F)F)C(F)(F)F + CCC[N+](C)(C)C.O=S(=O)([N-]S(=O)(=O)C(F)(F)F)C(F)(F)F
x2 = 0
Settings | viscosity [mPa·s]
283.15 K | 397
288.15 K | 277
308.15 K | 87
318.15 K | 55
323.15 K | 45.1
328.15 K | 37.3
333.15 K | 31.4
348.15 K | 19.8
353.15 K | 17.3
